Structures can show the parent of a compound that is named as a salt. Where two headings read alike, the source gives them in different places.
Molecular target: Btk enzyme (His-Btk) (Homo sapiens (Human), UniProt Q06187)
Assay: Btk enzyme activity, IMAP fluorescence polarization assay (Assay Method A)
[1] = read-out: EC50 Btk activity values - Assay Method A, IMAP-FP, 60 min pre-incubation, 5 μM ATP, class 100-1000 is given as ≧100 nM-<1 μM

Chain of Btk enzyme (His-Btk) (Q06187 whole entry): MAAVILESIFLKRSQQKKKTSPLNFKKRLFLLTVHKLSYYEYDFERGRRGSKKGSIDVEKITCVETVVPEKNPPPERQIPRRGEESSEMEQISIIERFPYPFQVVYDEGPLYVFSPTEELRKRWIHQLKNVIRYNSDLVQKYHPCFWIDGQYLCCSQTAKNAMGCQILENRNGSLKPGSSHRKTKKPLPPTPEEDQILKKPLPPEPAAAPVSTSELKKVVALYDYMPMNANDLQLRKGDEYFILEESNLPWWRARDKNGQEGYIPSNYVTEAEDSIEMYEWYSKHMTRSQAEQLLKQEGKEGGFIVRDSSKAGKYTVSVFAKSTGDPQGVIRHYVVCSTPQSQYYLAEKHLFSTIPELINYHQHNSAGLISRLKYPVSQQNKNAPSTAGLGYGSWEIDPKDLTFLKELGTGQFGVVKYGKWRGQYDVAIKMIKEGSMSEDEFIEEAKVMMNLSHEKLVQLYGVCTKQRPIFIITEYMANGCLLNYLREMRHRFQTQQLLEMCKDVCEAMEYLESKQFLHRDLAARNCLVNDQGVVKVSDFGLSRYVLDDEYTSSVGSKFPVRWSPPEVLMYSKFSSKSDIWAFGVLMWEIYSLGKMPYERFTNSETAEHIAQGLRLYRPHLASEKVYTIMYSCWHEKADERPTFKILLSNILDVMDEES

| EC50 [1] [µM] | EC50 [µM] | Structure (SMILES) |
| --- | --- | --- |
| < 0.01 | – | C[C@H]1CC[C@@H](c2nc(-c3ccc(C(=O)Nc4cc(C(F)(F)F)ccn4)cc3)c3c(N)nccn23)CN1C(=O)C1CCC1(F)F (relative stereo) [Example 190, 4-(8-amino-3-((cis)-1-(2,2-difluorocyclobutanecarbonyl)-6-methylpiperidin-3-yl)imidazo[1,5-a]pyrazin-1-yl)-N-(4-(trifluoromethyl)pyridin-2-yl)benzamide, TFA salt] |
| < 0.01 | – | C[C@H]1CC[C@@H](c2nc(-c3ccc(C(=O)Nc4ccccn4)cc3)c3c(N)nccn23)CN1C(=O)CC1CC1 (relative stereo) [Example 191, 4-(8-amino-3-((cis)-1-(2-cyclopropylacetyl)-6-methylpiperidin-3-yl)imidazo[1,5-a]pyrazin-1-yl)-N-(pyridin-2-yl)benzamide, TFA salt] |
| < 0.01 | – | C[C@H]1CC[C@@H](c2nc(-c3ccc(C(=O)Nc4ccccn4)cc3)c3c(N)nccn23)CN1C(=O)C1CC1 (relative stereo) [Example 192, 4-(8-amino-3-((cis)-1-(cyclopropanecarbonyl)-6-methylpiperidin-3-yl)imidazo[1,5-a]pyrazin-1-yl)-N-(pyridin-2-yl)benzamide, TFA salt] |
| < 0.01 | – | CCNC(=O)N1C[C@H](c2nc(-c3ccc(C(=O)Nc4ccccn4)cc3)c3c(N)nccn23)CC[C@@H]1C (relative stereo) [Example 193, (cis)-5-(8-amino-1-(4-(pyridin-2-ylcarbamoyl)phenyl)imidazo [1,5-a]pyrazin-3-yl)-N-ethyl-2-methylpiperidine-1-carboxamide, TFA salt] |
| < 0.01 | – | C[C@H]1CC[C@@H](c2nc(-c3ccc(C(=O)Nc4cc(C(F)(F)F)ccn4)cc3)c3c(N)nccn23)CN1C(=O)C1CCCO1 (relative stereo) [Example 194, 4-(8-amino-3-((cis)-6-methyl-1-(tetrahydrofuran-2-carbonyl)piperidin-3-yl)imidazo[1,5-a]pyrazin-1-yl)-N-(4-(trifluoromethyl)pyridin-2-yl)benzamide, TFA salt] |
| < 0.01 | – | CSCCC(=O)N1C[C@H](c2nc(-c3ccc(C(=O)Nc4cc(C(F)(F)F)ccn4)cc3)c3c(N)nccn23)CC[C@@H]1C (relative stereo) [Example 195, 4-(8-amino-3-((cis)-6-methyl-1-(3-(methylthio)propanoyl)piperidin-3-yl)imidazo[1,5-a]pyrazin-1-yl)-N-(4-(trifluoromethyl)pyridin-2-yl)benzamide, TFA salt] |
| < 0.01 | – | C[C@H]1CC[C@@H](c2nc(-c3ccc(C(=O)Nc4cc(C5CC5)ccn4)cc3)c3c(N)nccn23)CN1C(=O)CN1CCOC1=O (relative stereo) [Example 196, 4-(8-amino-3-((cis)-6-methyl-1-(2-(2-oxooxazolidin-3-yl)acetyl)piperidin-3-yl)imidazo[1,5-a]pyrazin-1-yl)-N-(4-cyclopropylpyridin-2-yl)benzamide, TFA salt] |

The remaining lines, values behind:

| Structure (SMILES) | EC50 [1] [µM] | EC50 [µM] |
| --- | --- | --- |
| Nc1nccn2c([C@@H]3CCC[C@@H](N)C3)nc(-c3ccc(C(=O)Nc4cc(C(F)(F)F)ccn4)cc3)c12 (relative stereo) [Example 165, 4-(8-amino-3-((trans)-3-aminocyclohexyl)imidazo[1,5-a]pyrazin-1-yl)-N-(4-(trifluoromethyl)pyridin-2-yl)benzamide] | < 0.01 | – |
| COCCC(=O)N[C@@H]1CCC[C@@H](c2nc(-c3ccc(C(=O)Nc4cc(C(F)(F)F)ccn4)cc3)c3c(N)nccn23)C1 (relative stereo) [Example 166, 4-(8-amino-3-((trans)-3-(3-methoxypropanamido)cyclohexyl)imidazo[1,5-a]pyrazin-1-yl)-N-(4-(trifluoromethyl)pyridin-2-yl)benzamide] | < 0.01 | – |
| CC(C)C(=O)N[C@@H]1CCC[C@@H](c2nc(-c3ccc(C(=O)Nc4cc(C(F)(F)F)ccn4)cc3)c3c(N)nccn23)C1 (relative stereo) [Example 167, 4-(8-amino-3-((trans)-3-isobutyramidocyclohexyl)imidazo [1,5-a]pyrazin-1-yl)-N-(4-(trifluoromethyl)pyridin-2-yl)benzamide] | < 0.01 | – |
| Nc1nccn2c([C@@H]3CCC[C@@H](NC(=O)C4CCCO4)C3)nc(-c3ccc(C(=O)Nc4cc(C(F)(F)F)ccn4)cc3)c12 (relative stereo) [Example 169, N-((trans)-3-(8-amino-1-(4-(4-(trifluoromethyl)pyridin-2-ylcarbamoyl)phenyl)imidazo [1,5-a]pyrazin-3-yl)cyclohexyl)tetrahydrofuran-2-carboxamide] | < 0.01 | – |
| CCC(=O)N[C@@H]1CCC[C@@H](c2nc(-c3ccc(C(=O)Nc4cc(C(F)(F)F)ccn4)cc3)c3c(N)nccn23)C1 (relative stereo) [Example 170, 4-(8-amino-3-((trans)-3-propionamidocyclohexyl)imidazo [1,5-a]pyrazin-1-yl)-N-(4-(trifluoromethyl)pyridin-2-yl)benzamide] | < 0.01 | – |
| Nc1nccn2c([C@@H]3CCC[C@@H](NC(=O)C4CCC4)C3)nc(-c3ccc(C(=O)Nc4cc(C(F)(F)F)ccn4)cc3)c12 (relative stereo) [Example 171, 4-(8-amino-3-((trans)-3-(cyclobutanecarboxamido)cyclohexyl)imidazo[1,5-a]pyrazin-1-yl)-N-(4-(trifluoromethyl)pyridin-2-yl)benzamide] | < 0.01 | – |
| CC1(C(=O)N2C[C@@H](O)C[C@@H](c3nc(-c4ccc(C(=O)Nc5cc(C(F)(F)F)ccn5)cc4)c4c(N)nccn34)C2)COC1 (relative stereo) [Example 179, 4-(8-amino-3-((cis)-5-hydroxy-1-(3-methyloxetane-3-carbonyl)piperidin-3-yl)imidazo[1,5-a]pyrazin-1-yl)-N-(4-(trifluoromethyl)pyridin-2-yl)benzamide] | – | 0.01 to 0.1 |
| Nc1nccn2c([C@@H]3C[C@H](O)CN(C(=O)C4CC4)C3)nc(-c3ccc(C(=O)Nc4cc(C(F)(F)F)ccn4)cc3)c12 (relative stereo) [Example 180, 4-(8-amino-3-((cis)-1-(cyclopropanecarbonyl)-5-hydroxypiperidin-3-yl)imidazo[1,5-a]pyrazin-1-yl)-N-(4-(trifluoromethyl)pyridin-2-yl)benzamide] | < 0.01 | – |
| COCCC(=O)N1C[C@@H](O)C[C@@H](c2nc(-c3ccc(C(=O)Nc4cc(C(F)(F)F)ccn4)cc3)c3c(N)nccn23)C1 (relative stereo) [Example 181, 4-(8-amino-3-((cis)-5-hydroxy-1-(3-methoxypropanoyl)piperidin-3-yl)imidazo[1,5-a]pyrazin-1-yl)-N-(4-(trifluoromethyl)pyridin-2-yl)benzamide] | < 0.01 | – |
| CCOC(=O)N1C[C@H](c2nc(-c3ccc(C(=O)Nc4cc(C(F)(F)F)ccn4)cc3)c3c(N)nccn23)CC[C@H]1C (relative stereo) [Example 182, (trans)-ethyl 5-(8-amino-1-(4-(4-(trifluoromethyl)pyridin-2-ylcarbamoyl)phenyl)imidazo [1,5-a]pyrazin-3-yl)-2-methylpiperidine-1-carboxylate, TFA salt] | – | < 0.01 |
| COCCC(=O)N1C[C@H](c2nc(-c3ccc(C(=O)Nc4cc(C5CC5)ccn4)cc3)c3c(N)nccn23)CC[C@@H]1C (relative stereo) [Example 183, 4-(8-amino-3-((cis)-1-(3-methoxypropanoyl)-6-methylpiperidin-3-yl)imidazo[1,5-a]pyrazin-1-yl)-N-(4-cyclopropylpyridin-2-yl)benzamide, TFA salt] | < 0.01 | – |
| C[C@H]1CC[C@@H](c2nc(-c3ccc(C(=O)Nc4cc(C5CC5)ccn4)cc3)c3c(N)nccn23)CN1C(=O)N1CCCCC1 (relative stereo) [Example 184, 4-(8-amino-3-((cis)-6-methyl-1-(piperidine-1-carbonyl)piperidin-3-yl)imidazo[1,5-a]pyrazin-1-yl)-N-(4-cyclopropylpyridin-2-yl)benzamide, TFA salt] | < 0.01 | – |
| C[C@@H]1CC[C@@H](c2nc(-c3ccc(C(=O)Nc4cc(C(F)(F)F)ccn4)cc3)c3c(N)nccn23)CN1C(=O)C1CCCO1 (relative stereo) [Example 185, 4-(8-amino-3-((trans)-6-methyl-1-(tetrahydrofuran-2-carbonyl)piperidin-3-yl)imidazo[1,5-a]pyrazin-1-yl)-N-(4-(trifluoromethyl)pyridin-2-yl)benzamide, TFA salt] | – | 0.01 to 0.1 |
| CCNC(=O)N1C[C@H](c2nc(-c3ccc(C(=O)Nc4cc(C(F)(F)F)ccn4)cc3)c3c(N)nccn23)CC[C@H]1C (relative stereo) [Example 186, (trans)-5-(8-amino-1-(4-(4-(trifluoromethyl)pyridin-2-ylcarbamoyl)phenyl)imidazo [1,5-a]pyrazin-3-yl)-N-ethyl-2-methylpiperidine-1-carboxamide, TFA salt] | < 0.01 | – |
| CSCCC(=O)N1C[C@H](c2nc(-c3ccc(C(=O)Nc4cc(C(F)(F)F)ccn4)cc3)c3c(N)nccn23)CC[C@H]1C (relative stereo) [Example 187, 4-(8-amino-3-((trans)-6-methyl-1-(3-(methylthio)propanoyl)piperidin-3-yl)imidazo[1,5-a]pyrazin-1-yl)-N-(4-(trifluoromethyl)pyridin-2-yl)benzamide, TFA salt] | – | 0.01 to 0.1 |
| C[C@@H]1CC[C@@H](c2nc(-c3ccc(C(=O)Nc4cc(C(F)(F)F)ccn4)cc3)c3c(N)nccn23)CN1C(=O)C1CC1 (relative stereo) [Example 188, 4-(8-amino-3-((trans)-1-(cyclopropanecarbonyl)-6-methylpiperidin-3-yl)imidazo[1,5-a]pyrazin-1-yl)-N-(4-(trifluoromethyl)pyridin-2-yl)benzamide, TFA salt] | – | 0.01 to 0.1 |
| CCOCCC(=O)N1C[C@H](c2nc(-c3ccc(C(=O)Nc4cc(C(F)(F)F)ccn4)cc3)c3c(N)nccn23)CC[C@@H]1C (relative stereo) [Example 189, 4-(8-amino-3-((cis)-1-(3-ethoxypropanoyl)-6-methylpiperidin-3-yl)imidazo[1,5-a]pyrazin-1-yl)-N-(4-(trifluoromethyl)pyridin-2-yl)benzamide, TFA salt] | < 0.01 | – |
